# Results: patent US20110275672A1, “METHODS FOR TREATING CANCERS USING POLYMORPHIC FORMS OF 3-(4-AMINO-1-OXO-1,3 DIHYDRO-ISOINDOL-2-YL)-PIPERIDINE-2,6-DIONE” (Celgene Corporation, priority 2003, published 2011)
# Values joined by “and” are separate entries in the source; they are usually repeats but may differ in a detail not shown here. Identical values can stand only once. Like-named read-outs stand apart in the source and are kept apart here.
# Tests used:
# [1] = test system: IL-2; assay: Augmentation of IL-2 production following TCR activation of PBMC; assay type: cell-based
# [2] = test system: IL-10; assay: LPS-stimulated production of IL-10 by PBMC; assay type: cell-based
# [3] = test system: metastatic melanoma; assay: Treatment of metastatic melanoma patients; assay type: in vivo, human
# Procedure: The dose was then increased every seven days to 10 mg/day, 25 mg/day, and 50 mg/day, respectively, for a total of four weeks on therapy.
# [4] = test system: TNF-α production; conditions: human PBMC, cited from earlier work; for IC50: LPS, read-out: IC50 for inhibiting production of TNF-α following LPS-stimulation of PBMC
# [5] = Phase 1 studies in refractory or relapsed multiple myeloma patients: dose limiting toxicity; assay type: in vivo
# Procedure: (§1) Patients started 3-(4-amino-1-oxo-1,3-dihydro-isoindol-2-yl) -piperidine -2,6-dione treatment at 5 mg/day with subsequent escalation to 10, 25, and 50 mg/day. […] Patients were evaluated for adverse events at each visit and the severity of these events was graded according to the National Cancer Institute (NCI) Common Toxicity Criteria. Patients were discontinued if they experienced DLT (Grade 3 or greater non-hematological, or Grade 4 hematological toxicity).
# The second cohort of 3 patients subsequently commenced therapy at 10 mg/day.
# [6] = test system: MM.1S cells; assay: Inhibition of MM cell proliferation, [3H]-thymidine uptake, MM.1S; assay type: cell-based; conditions: for IC50: Homo sapiens, MM1.S
# Procedure: (§2) The uptake of [^3H]-thymidine by different MM cell lines (MM.1S, Hs Sultan, U266 and RPMI-8226) was measured as an indicator of the cell proliferation.
# (§3) Uptake [^3H]-thymidine by different MM cell lines (MM.1S, Hs Sultan, U266 and RPMI-8226) was measured as an indicator of cell proliferation. Cells were incubated in the presence of compounds for 48 hours; [^3H]-thymidine was included for the last 8 hours of the incubation period.
# [7] = test system: T-cells; assay: Stimulation of T-cell proliferation following primary induction by T-cell receptor (TCR) activation; assay type: cell-based
# [8] = Phase 1 studies in refractory or relapsed multiple myeloma patients: pharmacokinetics; assay type: in vivo
# Procedure: as §1
# Blood and urine samples were collected for analysis of pharmacokinetic parameters on Days 1 and 28. Blood samples were collected according to the following sampling schedule: pre-dose, 0.25, 0.5, 0.75, 1, 1.5, 2, 2.5, 3, 4, 6, 8, 10, 12, 18, and 24 hours post-dose. In addition, a blood sample was collected at each weekly clinic visit for 3-(4-amino-1-oxo-1,3-dihydro-isoindol-2-yl)-piperidine-2,6-dione determination. Total urine was collected and pooled according to the following time intervals post-dose: 0 to 4, 4 to 8, 8 to 12, and 12 to 24 hours. […] Bone marrow aspirations and/or tissue biopsy are also performed at Months 3, 6 and 12 if a patient's paraprotein serum concentration or 24-hour urine protein excretion declined to the next lower level, based on best response criteria.
# [9] = test system: Hs Sultan cells; assay: Inhibition of MM cell proliferation, [3H]-thymidine uptake, Hs Sultan; assay type: cell-based
# Procedure: as §2, §3
# [10] = LPS-stimulated production of IL-113 by PBMC; assay type: cell-based
# [11] = Phase 1 study in patients with solid tumors: dose limiting toxicity; assay type: in vivo; conditions: initial group of 20 patients with solid tumors, 5 escalated to 50 mg/day over 4 weeks
# Procedure: Patients who, experienced clinical benefit were permitted to continue on treatment as Named Patients.
# The study initially enrolled 20 patients and was subsequently amended to enroll 16 additional patients (adrenal carcinoma, NSCLC, malignant mesothelioma, breast cancer, metastatic melanoma (8), renal cell cancer (4)) at a higher dose. The 16 additional patients were given weekly escalating doses of 25 mg/day, 50 mg/day, 75 mg/day, 100 mg/day, 125 mg/day, and 150 mg/day over a 6-week period with continuing treatment for an additional six weeks.
# The study design dictates that at least 3 patients must be enrolled at a dose level and have completed 28 days of treatment prior to enrollment of patients at the next higher dose level. […] Patients will be escalated to 10, 20, 25, and 30 mg/day provided there is no toxicity.
# If, at any given dose level in either study, one out of three patients experiences toxicity, three additional patients must be treated at that particular dose. If, however, two out of six patients experience DLT, the MTD is judged to have been exceeded. No further dose escalations are to occur and additional patients are to be enrolled at the previous dose level. The dose of 3-(4-amino-l-oxo-1,3-dihydro-isoindol-2-yl)-piperidine-2,6-dione administered is escalated until the MTD is achieved or the maximum daily dose […] is reached.
# [12] = test system: IFN-γ; assay: Augmentation of IFN-γ production following TCR activation of T-cells; assay type: cell-based
# [13] = test system: TNF-α production; assay: Inhibition of TNF-α production following LPS-stimulation of human PBMC; assay type: cell-based
# [14] = Cardiovascular and respiratory function in anesthetized dogs; assay type: in vivo, Beagle dogs
# Text: Two groups of Beagle dogs (2/sex/group) are used.
# [15] = test system: IL-6; assay: LPS-stimulated production of IL-6 by PBMC; assay type: cell-based
# [16] = test system: TNF-α production; conditions: cited from earlier work; for IC50: human whole blood, LPS, read-out: IC50 for inhibiting production of TNF-α following LPS-stimulation of human whole blood
# [17] = Pharmacokinetics of Actimid in relapsed/refractory multiple myeloma patients; assay type: in vivo, human
# Procedure: 6.5.1 Treatment of Relapsed Multiple Myeloma p 4-(Amino)-2-(2,6-dioxo(3-piperidyl))-isoindoline-1,3-dione (Actimid™) was administered to patients with relapsed/refractory multiple myeloma. The study was conducted in compliance with Good Clinical Practices. Patients were at least 18 years old, had been diagnosed with multiple myeloma (with paraprotein in serum and/or urine), and were considered refractory to treatment after at least two cycles of treatment, or have relapsed after two cycles of treatment.
# Patients who have progressive disease, according to the Southwest Oncology Group (SWOG) criteria, on their prior regimen are considered treatment refractory. Relapse following remission is defined as >25% increase in M component from baseline levels; reappearance of the M paraprotein that had previously disappeared; or a definite increase in the size and number of lytic bone lesions recognized on radiographs. Patients may have had prior therapy with thalidomide, provided they were able to tolerate the treatment. A Zubrod performance status of 0 to 2 is required for all patients.
# 4-(Amino)-2-(2,6-dioxo(3-piperidyl))-isoindoline-1,3-dione is administered to patients at doses of 1, 2, 5, or 10 mg/day for up to four weeks; at each dose level, three patients are initially enrolled. Dosing occurs at approximately the same time each morning; all doses are administered in the fasted state (no eating for at least two hours prior to dosing and two hours after dosing). 4-(Amino)-2-(2,6-dioxo(3-piperidyl))-isoindoline-1,3-dione doses are administered in an ascending fashion such that patients in the first cohort receive the lowest dose of 4-(amino)-2-(2,6-dioxo(3-piperidyl))-isoindoline-1,3-dione (1 mg/day) and escalation to the next higher dose level occurs only following the establishment of safety and tolerability at the current dose. If one out of three patients at any dose level experience dose limiting toxicity (DLT), three additional patients are enrolled at that dose. If none of the three additional patients experience DLT, escalation to the next dose level occurs; dose escalations continue in a similar fashion until the MTD is established or the maximum daily dose (10 mg/day) is attained. However, if one of the three additional patients enrolled experiences DLT, the MTD has been reached. If two or more of the three additional patients enrolled experience DLT, the MTD is judged to have been exceeded and three additional patients are enrolled at the preceding dose level to confirm the MTD. Once the MTD has been identified, four additional patients are enrolled at that dose level so that a total of 10 patients is treated at the MTD.
# Blood sampling for analysis of pharmacokinetic parameters is performed on Days 1 and 28 according to the following sampling schedule: pre-dose, 0.25, 0.5, 0.75, 1, 1.5, 2, 2.5, 3, 4, 6, 8, 10, 12, 18, and 24 hours post-dose. An additional blood sample is collected at each weekly visit for the determination of 4-(amino)-2-(2,6-dioxo(3-piperidyl))-isoindoline-1,3-dione levels. Total urine collections are also made with urine pooled according to the following time intervals post-dose: 0 to 4, 4 to 8, 8 to 12, and 12 to 24 hours. Safety assessments are made by monitoring adverse events, vital signs, ECGs, clinical laboratory evaluations (blood chemistry, hematology, lymphocyte phenotyping, and urinalysis), and physical examination at specific times during the study.
compound,measurement,setting,value
"Nc1cccc2c1CN(C1CCC(=O)NC1=O)C2=O (centres unmarked) [3-(4-amino-1-oxo-1,3-dihydro-isoindol-2-yl)-piperidine-2,6-dione]",times more potent than thalidomide in augmenting the production of IL-2,[1],50-100 times
same,production of the anti-inflammatory cytokine IL-10,[2],increased production
same,patients showing disease stabilization or a partial response,"[3]; first four weeks of treatment, 5 escalated weekly to 10, 25, 50 mg/day",Five of the 13
same,duration of response,[3]; metastatic melanoma patients,approximately six
same,tumor response in cutaneous and subcutaneous lesions,[3]; metastatic melanoma patients,five
same,tumor response in liver,[3]; metastatic melanoma patients,one
same,tumor response in lymph nodes,[3]; metastatic melanoma patients,two
same,IC50,[4],~100 nM
same,IC50 for inhibiting production of TNF-α following LPS-stimulation of PBMC,[4],0.0259 µg/mL
same,dose limiting toxicity (DLT),"[5]; 5 mg/day for 28 days, first cohort of 3 patients",without any dose limiting toxicity
same,tolerability,"[5]; 10 mg/day, second cohort of 3 patients",tolerated treatment well
same,IC50,"[6]; read-out: concentration resulting in 50% inhibition of cell proliferation, MM.1S cells, 48 hours, [3H]-thymidine last 8 hours",400 nM
same,times more potent than thalidomide in stimulating the proliferation of T-cells,[7],50-100 times
same,accumulation with multiple dosing,"[8]; human, in vivo",no evidence of accumulation
same,"half-live in patients, mean","[8]; human, in vivo",8 h
same,"half-live in patients, range","[8]; human, in vivo",up to 17 hours
same,plasma concentration profile,"[8]; human, in vivo",double peaks were observed
same,clearance compared to healthy volunteers,[8]; multiple myeloma patients,lower
same,exposure (Cmax and AUC) compared to healthy male volunteers,[8]; multiple myeloma patients,slightly higher
same,IC50,"[9]; read-out: concentration resulting in 50% inhibition of cell proliferation, 48 hours, [3H]-thymidine last 8 hours",1000 nM
same,LPS-stimulated production of IL-113 by PBMC,[10],dose-dependent inhibition
same,DLTs,[11],No DLTs were reported
same,times more potent than thalidomide in augmenting the production of IFN-γ,[12],50-100 times
same,LPS-stimulated production of TNF-α by PBMC,[13],dose-dependent inhibition
same,cardiovascular and respiratory changes compared to the vehicle control group,"[14]; anesthetized Beagle dogs, all doses (2, 10, and 20 mg/kg), infusion through the jugular vein",minimal
same,increase in arterial blood pressure at higher doses,"[14]; anesthetized dogs, higher doses (10, 20 mg/kg)",not seen at higher doses
same,duration of the increase in arterial blood pressure,"[14]; anesthetized dogs, low dose",approximately 15 minutes
same,arterial blood pressure after small increase (from 94 mmHg),"[14]; anesthetized dogs, low dose (2 mg/kg), infusion",101 mmHg
same,"deviations in femoral blood flow, respiratory parameters, and Qtc interval","[14]; anesthetized dogs, common to control and treated groups",not considered treatment-related
same,LPS-stimulated production of IL-6 by PBMC,[15],dose-dependent inhibition
same,IC50 for inhibiting production of TNF-α following LPS-stimulation of human whole blood,[16],0.1036 µg/mL
same,IC50,[16],~480 nM
"Nc1cccc2c1C(=O)N(C1CCC(=O)NC1=O)C2=O (centres unmarked) [Actimid, 4-(Amino)-2-(2,6-dioxo(3-piperidyl))-isoindoline-1,3-dione]",IC50,[4],~24 nM
same,IC50 for inhibiting production of TNF-α following LPS-stimulation of PBMC,[4],0.00655 µg/mL
same,fold increase in AUC(01) with a 5-fold increase in dose,[17]; Day 1,3.6 fold
same,fold increase in Cmax with a five-fold higher dose,[17]; Day 1,3.2 fold
same,fold increase in AUC(01) with a 5-fold increase in dose,[17]; Week 4,2.3 fold
same,fold increase in Cmax with a five-fold higher dose,[17]; Week 4,2.2 fold
same,absorption,"[17]; all dose levels, relapsed multiple myeloma patients",steadily absorbed
same,decline of plasma concentrations after reaching Cmax,"[17]; human, in vivo",monophasic manner
same,median Tmax,"[17]; human, in vivo",3 to 4 h
same,CL/F,"[17]; human, in vivo, 1 mg",114.75 mL/min
same,CL/F,"[17]; human, in vivo, 2 mg",121.43 mL/min
same,CL/F,"[17]; human, in vivo, 5 mg",182.31 mL/min
same,t½,"[17]; human, in vivo, 5 mg",6.5 h
same,IC50,"[6]; read-out: concentration achieving 50% inhibition of proliferation, MM.IS cells",0.00273 µg/mL to 0.0273 µg/mL and 10 nM to 100 nM
same,IC50,[9]; read-out: concentration achieving 50% inhibition of proliferation,0.00273 µg/mL to 0.0273 µg/mL and 10 nM to 100 nM
same,IC50 for inhibiting production of TNF-α following LPS-stimulation of human whole blood,[16],0.00683 µg/mL
same,IC50,[16],~25 nM
"O=C1CCC(N2C(=O)c3ccccc3C2=O)C(=O)N1 (centres unmarked) [thalidomide, reference compound]",IC50,[4],~194000 nM
same,IC50 for inhibiting production of TNF-α following LPS-stimulation of PBMC,[4],50.2 µg/mL
same,inhibition of cell proliferation,"[6]; MM.1S cells, concentrations up to 100 μm, 48 hours",15%
same,inhibition of cell proliferation,"[9]; concentrations up to 100 μm, 48 hours",20%
